Our source for the relative viability values is the supplement of paper PMC10307832.

Holding throughout (assay): relative viability (nuclei count vs DMSO), 5 days (fraction); higher = more cells survive
Compound in one experiment: CC1CC(=O)N(C2=CN=C(N=C2N1C3CCCC3)NC4=C(C=C(C=C4)C(=O)NC5CCN(CC5)C)OC)C [NPK76-II-72-1]
In short, it runs like this: (§1)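 On vehicle-anchored 1536-well plates, lung cancer cell lines held overnight at 37 °C were pinned with five library-drug doses (not always all listed) spaced by √10. With no medium change over 5 days, they were then fixed, permeabilised and Hoechst-stained in one step and imaged at 4×. MetaXpress counted nuclei, and viability is the median across plates of treated-well over vehicle-well nuclei. Acceptance needed control CV below 25% and at least one doubling.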

Compound in the next experiment: CC[C@@H]1C(=O)N(C)c2cnc(Nc3ccc(C(=O)NC4CCN(C)CC4)cc3OC)nc2N1C1CCCC1 [BI-2536]
The method in brief:
as §1

Compound in experiment [1]: CC1CC(=O)N(C2=CN=C(N=C2N1C3CCCC3)NC4=C(C=C(C=C4)C(=O)NC5CCN(CC5)C)OC)C [NPK76-II-72-1] + Cc1nc(NC(=O)N2CCC[C@H]2C(N)=O)sc1-c1ccnc(C(C)(C)C(F)(F)F)c1 [Alpelisib] (partner 2 µM)
The method in brief: (§2)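 Each reported value is a median over duplicate plates. It expresses relative viability: treated-well nuclei count divided by vehicle-well nuclei count. Lung cancer cell lines in 1536-well plates were dosed by pin tool a day after seeding, alone with one drug or with a fixed anchor-drug dose plus five library-drug doses (not always all listed) in √10 steps, and nuclei were counted after 5 days.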

Compound in the experiment “BI-2536 + Pemetrexed”: CC[C@@H]1C(=O)N(C)c2cnc(Nc3ccc(C(=O)NC4CCN(C)CC4)cc3OC)nc2N1C1CCCC1 [BI-2536] + Nc1nc2[nH]cc(CCc3ccc(C(=O)N[C@@H](CCC(=O)O)C(=O)O)cc3)c2c(=O)[nH]1 [Pemetrexed] (partner 0.2 µM)
The method in brief: as §2

As for SK-MES-1, the relative viability in the experiment with NPK76-II-72-1 (0.01 µM) is 0.986; with NPK76-II-72-1 (0.03162 µM), 1.03; in the experiment with NPK76-II-72-1 (0.1 µM), 0.989; with NPK76-II-72-1 (0.3162 µM) it was 1.01; with NPK76-II-72-1 (1 µM) it was 1.09; in the experiment with BI-2536 (0.01 µM), 1.07. In addition, the relative viability came out at 0.975 in the experiment with BI-2536 (0.03162 µM); 0.614 in the experiment with BI-2536 (0.1 µM); 0.196 with BI-2536 (0.3162 µM); 0.179 in the experiment with BI-2536 (1 µM); 0.835 in experiment [1] (first compound 0.01 µM); 0.847 in experiment [1] (first compound 0.03162 µM). The relative viability in experiment [1] (first compound 0.1 µM) was 0.868; in experiment [1] (first compound 0.3162 µM), 0.907; in experiment [1] (first compound 1 µM), 0.883; with BI-2536 + Pemetrexed (first compound 0.01 µM), 0.912; with BI-2536 + Pemetrexed (first compound 0.03162 µM), 0.887; in the experiment with BI-2536 + Pemetrexed (first compound 0.1 µM), 0.66. Also, the relative viability with BI-2536 + Pemetrexed (first compound 0.3162 µM) amounted to 0.205; with BI-2536 + Pemetrexed (first compound 1 µM), 0.197.
Consider NCI-H2087, for which the relative viability with NPK76-II-72-1 (0.01 µM) came to 0.98; with NPK76-II-72-1 (0.03162 µM) it was 1.03; with NPK76-II-72-1 (0.1 µM), 0.868; in the experiment with NPK76-II-72-1 (0.3162 µM) it was 0.889; in the experiment with NPK76-II-72-1 (1 µM), 1.05; with BI-2536 (0.01 µM), 1.11. The relative viability came out at 1.06 with BI-2536 (0.03162 µM); 0.607 with BI-2536 (0.1 µM); 0.105 in the experiment with BI-2536 (0.3162 µM); 0.133 with BI-2536 (1 µM); 1.1 in experiment [1] (first compound 0.01 µM); 1.1 in experiment [1] (first compound 0.03162 µM). Further, the relative viability in experiment [1] (first compound 0.1 µM) stood at 1.07; in experiment [1] (first compound 0.3162 µM) it was 1.01; in experiment [1] (first compound 1 µM), 1.48; with BI-2536 + Pemetrexed (first compound 0.01 µM) it was 0.7; with BI-2536 + Pemetrexed (first compound 0.03162 µM) it was 0.697; in the experiment with BI-2536 + Pemetrexed (first compound 0.1 µM), 0.713. Moreover, the relative viability with BI-2536 + Pemetrexed (first compound 0.3162 µM) was 0.104; in the experiment with BI-2536 + Pemetrexed (first compound 1 µM), 0.0907.
Take HCC-366: the relative viability came out at 0.994 with NPK76-II-72-1 (0.01 µM); 0.999 in the experiment with NPK76-II-72-1 (0.03162 µM); 1 with NPK76-II-72-1 (0.1 µM); 1.09 with NPK76-II-72-1 (0.3162 µM); 0.97 with NPK76-II-72-1 (1 µM); 1.04 with BI-2536 (0.01 µM). Also, the relative viability with BI-2536 (0.03162 µM) worked out at 1.06; in the experiment with BI-2536 (0.1 µM), 0.677; with BI-2536 (0.3162 µM), 0.0316; with BI-2536 (1 µM), 0.0344; in experiment [1] (first compound 0.01 µM), 0.401; in experiment [1] (first compound 0.03162 µM), 0.443. Also, the relative viability in experiment [1] (first compound 0.1 µM) stood at 0.456; in experiment [1] (first compound 0.3162 µM), 0.435; in experiment [1] (first compound 1 µM), 0.452; in the experiment with BI-2536 + Pemetrexed (first compound 0.01 µM) it was 0.193; in the experiment with BI-2536 + Pemetrexed (first compound 0.03162 µM) it was 0.17; with BI-2536 + Pemetrexed (first compound 0.1 µM), 0.157. In addition, the relative viability with BI-2536 + Pemetrexed (first compound 0.3162 µM) came to 0.024; in the experiment with BI-2536 + Pemetrexed (first compound 1 µM), 0.0288.
As to LU99A, the relative viability is 0.882 with NPK76-II-72-1 (0.01 µM); 0.946 in the experiment with NPK76-II-72-1 (0.03162 µM); 0.945 with NPK76-II-72-1 (0.1 µM); 0.875 with NPK76-II-72-1 (0.3162 µM); 1.02 in the experiment with NPK76-II-72-1 (1 µM); 0.939 with BI-2536 (0.01 µM). For the same cell line, the relative viability with BI-2536 (0.03162 µM) came to 0.815; in the experiment with BI-2536 (0.1 µM), 0.449; with BI-2536 (0.3162 µM) it was 0.245; with BI-2536 (1 µM), 0.214; in experiment [1] (first compound 0.01 µM), 0.462; in experiment [1] (first compound 0.03162 µM) it was 0.578. Moreover, the relative viability is 0.576 in experiment [1] (first compound 0.1 µM); 0.48 in experiment [1] (first compound 0.3162 µM); 0.563 in experiment [1] (first compound 1 µM); 0.225 with BI-2536 + Pemetrexed (first compound 0.01 µM); 0.193 with BI-2536 + Pemetrexed (first compound 0.03162 µM); 0.165 with BI-2536 + Pemetrexed (first compound 0.1 µM). The relative viability turned out to be 0.152 with BI-2536 + Pemetrexed (first compound 0.3162 µM) and 0.143 with BI-2536 + Pemetrexed (first compound 1 µM).
